This note sets out measurements from publication PMC3740188 (Protein & cell, 2013).

What all share (type): binding
For test [1], the target named is T1, AT cpn-β (thermosome cpn-β) (Acidianus tengchongensis, UniProt Q877H2).
T1 sequence (Q877H2 1-553): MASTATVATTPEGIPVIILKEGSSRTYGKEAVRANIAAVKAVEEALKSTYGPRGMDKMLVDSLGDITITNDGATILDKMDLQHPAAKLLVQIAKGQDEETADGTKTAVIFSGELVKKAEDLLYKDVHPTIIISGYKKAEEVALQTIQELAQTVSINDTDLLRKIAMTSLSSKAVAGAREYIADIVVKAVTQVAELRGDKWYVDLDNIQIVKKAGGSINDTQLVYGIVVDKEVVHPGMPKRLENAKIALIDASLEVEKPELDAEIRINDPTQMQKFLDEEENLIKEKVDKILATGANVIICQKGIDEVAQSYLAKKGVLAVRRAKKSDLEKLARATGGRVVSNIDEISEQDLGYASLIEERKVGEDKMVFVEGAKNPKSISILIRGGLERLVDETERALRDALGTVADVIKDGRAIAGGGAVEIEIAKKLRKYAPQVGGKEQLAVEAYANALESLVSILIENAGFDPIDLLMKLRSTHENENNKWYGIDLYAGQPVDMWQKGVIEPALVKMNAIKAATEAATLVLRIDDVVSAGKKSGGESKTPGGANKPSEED
Put plainly: heating […] min then native PAGE of oligomer dissociation. The settings on record: ADP in place of ATP; pH 7.5, MgCl2.

Test [2] has as its target T2, AT cpn-α (thermosome cpn-α) (Acidianus tengchongensis, UniProt Q877H0).
T2 sequence (Q877H0 1-563): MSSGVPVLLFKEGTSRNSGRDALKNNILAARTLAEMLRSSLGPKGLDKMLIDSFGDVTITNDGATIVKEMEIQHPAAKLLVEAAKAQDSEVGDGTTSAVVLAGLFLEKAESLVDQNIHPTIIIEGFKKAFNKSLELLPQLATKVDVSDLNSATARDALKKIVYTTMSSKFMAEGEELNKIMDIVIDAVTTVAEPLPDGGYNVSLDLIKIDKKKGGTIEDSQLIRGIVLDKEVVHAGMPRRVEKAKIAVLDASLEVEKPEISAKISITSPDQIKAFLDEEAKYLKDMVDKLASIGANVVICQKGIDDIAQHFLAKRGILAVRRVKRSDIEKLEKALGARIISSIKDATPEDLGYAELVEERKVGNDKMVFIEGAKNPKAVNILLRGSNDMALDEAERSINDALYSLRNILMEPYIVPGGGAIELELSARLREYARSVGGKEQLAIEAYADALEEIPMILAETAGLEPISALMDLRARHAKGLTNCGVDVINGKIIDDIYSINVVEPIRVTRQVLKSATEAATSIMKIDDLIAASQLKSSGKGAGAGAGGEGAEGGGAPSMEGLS
The test is described as above. The note with it: ADP in place of ATP; pH 7.5, MgCl2.

In test [3] the target is T1, AT cpn-β (thermosome cpn-β). Kind of test: nucleotide-induced oligomer assembly by native PAGE. The settings on record: 2 mM nucleotide, 20 mM MgCl2, pH 7.5, 37 °C, 8 h.
Test [4] deals with T2, AT cpn-α (thermosome cpn-α). The description is as above. The note with it: 2 mM nucleotide, 20 mM MgCl2, pH 7.5, 37 °C, 8 h.
Test [5] addresses T1, AT cpn-β (thermosome cpn-β). Put plainly: cryo-EM reconstruction with MDFF model. The settings on record: pH 7.5, 12 mM Mg, 50 mM KCl; 6.2/5.0 Å resolution.

As to `Nc1ncnc2c1ncn2[C@@H]1O[C@H](COP(=O)(O)OP(=O)(O)O)[C@@H](O)[C@H]1O` [ADP], the Td entry in test [1] was “ADP binding also increased the thermal stability of cpn-α and cpn-β”; in test [2], “ADP binding also increased the thermal stability of cpn-α and cpn-β”. For the compound `Nc1ncnc2c1ncn2[C@@H]1O[C@H](COP(=O)(O)OP(=O)(O)NP(=O)(O)O)[C@@H](O)[C@H]1O` [AMP-PNP], the “nucleotide-induced oligomer assembly by native PAGE” value in test [3] and in test [4] was “all nucleotides could efficiently induce the assembly of thermosomes for both cpn-α” in each case. In the case of `Nc1ncnc2c1ncn2[C@@H]1O[C@H](COP(=O)(O)OP(=O)(O)OP(=O)(O)O)[C@@H](O)[C@H]1O` [ATP], the “cryo-EM reconstruction with MDFF model” value in test [5] is on record as “cryoEM reconstructions of cpn-β in the apo or ATP-binding state”.

As to `Nc1nc2c(ncn2[C@@H]2O[C@H](COP(=O)(O)OP(=O)(O)OP(=O)(O)O)[C@@H](O)[C@H]2O)c(=O)[nH]1` [GTP], the “nucleotide-induced oligomer assembly by native PAGE” value in test [3] and in test [4] was “even GTP could induce the assembly of thermosomes” each time.
